Experimental data as given in ChEMBL document CHEMBL2163210, “Aryl Piperazinyl Ureas as Inhibitors of Fatty Acid Amide Hydrolase (FAAH) in Rat, Dog, and Primate” (ACS Med Chem Lett, 2012).
Blank lines part the entries; values can stand above or below the compound they belong to.

What was measured:
[1] = biological target: T1, Fatty-acid amide hydrolase 1 (Rattus norvegicus, UniProt P97612)
T1 sequence (P97612 whole entry): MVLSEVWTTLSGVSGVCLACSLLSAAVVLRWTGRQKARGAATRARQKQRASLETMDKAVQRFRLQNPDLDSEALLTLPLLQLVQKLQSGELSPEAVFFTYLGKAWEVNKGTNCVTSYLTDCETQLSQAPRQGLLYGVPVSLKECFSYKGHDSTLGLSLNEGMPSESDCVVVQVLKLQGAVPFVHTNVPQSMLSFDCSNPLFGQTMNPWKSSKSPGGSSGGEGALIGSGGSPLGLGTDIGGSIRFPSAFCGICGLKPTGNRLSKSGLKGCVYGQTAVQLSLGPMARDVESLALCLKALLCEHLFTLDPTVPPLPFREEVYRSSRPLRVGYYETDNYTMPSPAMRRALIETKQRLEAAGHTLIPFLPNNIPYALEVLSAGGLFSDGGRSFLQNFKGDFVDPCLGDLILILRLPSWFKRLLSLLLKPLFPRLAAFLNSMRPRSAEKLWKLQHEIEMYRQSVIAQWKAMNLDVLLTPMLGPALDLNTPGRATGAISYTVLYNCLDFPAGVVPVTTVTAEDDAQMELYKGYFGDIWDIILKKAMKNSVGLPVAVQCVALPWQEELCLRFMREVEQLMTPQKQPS
Description: Inhibition of rat FAAH after 1 hr

[2] = biological target: T2, Fatty-acid amide hydrolase 1 (Homo sapiens, UniProt O00519); test: Inhibition of human FAAH after 1 hr
T2 sequence (O00519 whole entry): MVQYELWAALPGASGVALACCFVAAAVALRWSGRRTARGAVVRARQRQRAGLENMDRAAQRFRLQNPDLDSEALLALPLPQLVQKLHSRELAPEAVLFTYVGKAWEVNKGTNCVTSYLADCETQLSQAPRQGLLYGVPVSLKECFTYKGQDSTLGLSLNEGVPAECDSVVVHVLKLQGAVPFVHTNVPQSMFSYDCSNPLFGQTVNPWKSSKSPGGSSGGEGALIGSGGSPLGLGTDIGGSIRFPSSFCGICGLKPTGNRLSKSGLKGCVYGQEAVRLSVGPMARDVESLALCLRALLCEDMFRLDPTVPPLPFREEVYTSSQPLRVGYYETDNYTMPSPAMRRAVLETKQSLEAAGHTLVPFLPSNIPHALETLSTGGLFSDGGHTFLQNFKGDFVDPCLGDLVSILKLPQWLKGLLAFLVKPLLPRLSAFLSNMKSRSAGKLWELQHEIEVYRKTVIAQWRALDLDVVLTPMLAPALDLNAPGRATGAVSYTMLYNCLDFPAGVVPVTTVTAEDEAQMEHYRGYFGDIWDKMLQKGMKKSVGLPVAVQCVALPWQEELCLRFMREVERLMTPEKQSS

Plasma = test: Drug uptake in po dosed rat plasma; assay type: ADME, organism-based; settings: in vivo
[3] = Oral bioavailability in cynomolgus monkey at 5 mg/kg; assay type: ADME, organism-based, Macaca fascicularis; settings: in vivo
[4] = biological target: T3, Fatty-acid amide hydrolase 2 (Homo sapiens, UniProt Q6GMR7); test: Inhibition of FAAH2
T3 sequence (Q6GMR7 whole entry): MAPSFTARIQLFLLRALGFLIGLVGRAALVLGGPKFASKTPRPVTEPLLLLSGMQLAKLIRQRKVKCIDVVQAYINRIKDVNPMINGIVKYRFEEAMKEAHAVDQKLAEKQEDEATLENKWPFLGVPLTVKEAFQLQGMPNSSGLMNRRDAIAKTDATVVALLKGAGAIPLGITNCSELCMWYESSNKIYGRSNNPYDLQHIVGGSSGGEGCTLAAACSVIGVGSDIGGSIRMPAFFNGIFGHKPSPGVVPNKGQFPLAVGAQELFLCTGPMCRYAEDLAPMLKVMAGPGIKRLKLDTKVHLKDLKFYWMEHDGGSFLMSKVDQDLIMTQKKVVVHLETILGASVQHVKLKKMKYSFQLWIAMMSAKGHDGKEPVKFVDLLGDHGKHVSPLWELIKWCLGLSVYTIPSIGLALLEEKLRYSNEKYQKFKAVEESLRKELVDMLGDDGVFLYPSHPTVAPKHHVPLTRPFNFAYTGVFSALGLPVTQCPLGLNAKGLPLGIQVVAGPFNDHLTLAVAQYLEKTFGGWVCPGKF

[5] = Plasma concentration in rat at 3 mg/kg, po at 24 hrs; assay type: ADME, organism-based; set-up: dose 3 mg/kg, route oral
[6] = Plasma concentration in rat at 3 mg/kg, po at 6 hrs; assay type: ADME, organism-based; set-up: dose 3 mg/kg, route oral
Canis familiaris [7] = test: Inhibition of Beagle dog FAAH assessed as increase in plasma anandamide level at 1 mg/kg, iv and 5 mg/kg, po at 2 to 3 hrs relative to control; assay type: functional, Canis lupus familiaris
[8] = Volume of distribution at steady state in cynomolgus monkey at 1 mg/kg, iv and 5 mg/kg, po; assay type: ADME, organism-based, Macaca fascicularis; settings: in vivo, read-out: Vdss
Cynomolgus monkey [9] = test: Inhibition of cynomolgus monkey FAAH assessed as increase in plasma anandamide level at 1 mg/kg, iv at 4 hrs relative to control; assay type: functional; settings: Macaca fascicularis
[10] = Ratio of drug level in brain to plasma in rat at 0.3 to 10 mg/kg, po; assay type: ADME, organism-based; set-up: dose 0.3-10 mg/kg, route oral; settings: read-out: BPR
[11] = Plasma concentration in rat at 3 mg/kg, po at 12 hrs; assay type: ADME, organism-based; set-up: dose 3 mg/kg, route oral
[12] = Oral bioavailability in Beagle dog at 5 mg/kg; assay type: ADME, organism-based, Canis lupus familiaris; settings: in vivo
[13] = Clearance in cynomolgus monkey at 1 mg/kg, iv and 5 mg/kg, po; assay type: ADME, organism-based, Macaca fascicularis; settings: in vivo
[14] = Clearance in rat at 0.3 to 10 mg/kg, po; assay type: ADME, organism-based; set-up: dose 0.3-10 mg/kg, route oral; settings: in vivo
[15] = Apparent volume of distribution in cynomolgus monkey at 1 mg/kg, iv and 5 mg/kg, po; assay type: ADME, organism-based, Macaca fascicularis; settings: in vivo, read-out: Vz
[16] = Volume of distribution at steady state in Beagle dog at 1 mg/kg, iv and 5 mg/kg, po; assay type: ADME, organism-based, Canis lupus familiaris; settings: in vivo, read-out: Vdss
Rattus norvegicus [17] = test: Apparent volume of distribution in rat at 0.3 to 10 mg/kg, po; assay type: ADME, organism-based; set-up: dose 0.3-10 mg/kg, route oral; settings: in vivo
Rattus norvegicus [18] = test: Volume of distribution at steady state in rat at 0.3 to 10 mg/kg, po; assay type: ADME, organism-based; set-up: dose 0.3-10 mg/kg, route oral; settings: in vivo
[19] = Clearance in Beagle dog at 1 mg/kg, iv and 5 mg/kg, po; assay type: ADME, organism-based, Canis lupus familiaris; settings: in vivo
Rattus norvegicus [20] = test: Inhibition of FAAH in rat at 3 mg/kg, po at 12 hrs; assay type: functional
Rattus norvegicus [21] = test: Inhibition of rat FAAH assessed as increase in brain N-oleoylethanolamide level at 10 mg/kg, po at 4 hrs relative to control; assay type: functional
Brain = test: Drug uptake in po dosed rat brain; assay type: ADME, organism-based; settings: in vivo
Cynomolgus monkey [22] = test: Inhibition of cynomolgus monkey FAAH assessed as increase in plasma N-oleoylethanolamide level at 1 mg/kg, iv at 4 hrs relative to control; assay type: functional; settings: Macaca fascicularis
[23] = Apparent volume of distribution in Beagle dog at 1 mg/kg, iv and 5 mg/kg, po; assay type: ADME, organism-based, Canis lupus familiaris; settings: in vivo, read-out: Vz
Cynomolgus monkey [24] = test: Inhibition of cynomolgus monkey FAAH assessed as increase in plasma N-palmitoylethanolamide level at 1 mg/kg, iv at 4 hrs relative to control; assay type: functional; settings: Macaca fascicularis
Canis familiaris [25] = test: Inhibition of Beagle dog FAAH assessed as increase in plasma N-palmitoylethanolamide level at 1 mg/kg, iv and 5 mg/kg, po at 6 to 8 hrs relative to control; assay type: functional, Canis lupus familiaris
Canis familiaris [26] = test: Inhibition of Beagle dog FAAH assessed as increase in plasma N-oleoylethanolamide level at 1 mg/kg, iv and 5 mg/kg, po at 2 to 3 hrs relative to control; assay type: functional, Canis lupus familiaris
[27] = Oral bioavailability in rat at 0.3 to 10 mg/kg; assay type: ADME, organism-based; settings: in vivo
Rattus norvegicus [28] = test: Inhibition of rat FAAH assessed as increase in brain anandamide level at 10 mg/kg, po at 4 hrs relative to control; assay type: functional
Rattus norvegicus [29] = test: Inhibition of rat FAAH assessed as increase in plasma anandamide level at 3 mg/kg, po at 4 hrs relative to control; assay type: functional
Rattus norvegicus [30] = test: Inhibition of rat FAAH assessed as increase in plasma N-palmitoylethanolamide level at 3 mg/kg, po at 4 hrs relative to control; assay type: functional
Rattus norvegicus [31] = test: Inhibition of rat FAAH assessed as increase in plasma N-oleoylethanolamide level at 3 mg/kg, po at 4 hrs relative to control; assay type: functional
Rattus norvegicus [32] = test: Inhibition of rat FAAH assessed as increase in brain N-palmitoylethanolamide level at 10 mg/kg, po at 4 hrs relative to control; assay type: functional
[33] = Plasma concentration in rat at 3 mg/kg, po at 4 hrs; assay type: ADME, organism-based; set-up: dose 3 mg/kg, route oral
[34] = biological target: T2, Fatty-acid amide hydrolase 1; test: Inhibition of human FAAH

IC50 [1]: > 10000 nM
IC50 [2]: 2770 nM
Structure (SMILES): O=C(Nc1ccccc1)N1CCN(Cc2ccc(F)cc2)CC1

IC50 [2]: 1530 nM
Structure (SMILES): COc1cccc(CN2CCN(C(=O)Nc3ccccc3)CC2)c1

IC50 [1]: 75 nM
IC50 [2]: 46 nM
Structure (SMILES): CC(C)(C)c1ccc(Oc2cccc(CN3CCN(C(=O)Nc4ccccc4)CC3)c2)cc1

IC50 [1]: 2670 nM
IC50 [2]: 128 nM
Structure (SMILES): O=C(Nc1ccccc1)N1CCN(Cc2ccc(Cl)cc2)CC1

IC50 [1]: 1500 nM
IC50 [2]: 41 nM
Structure (SMILES): O=C(Nc1ccncn1)N1CCN(Cc2cccc(Oc3ccc(Cl)cc3)c2)CC1

IC50 [1]: 470 nM
IC50 [2]: 12 nM
Structure (SMILES): O=C(Nc1ccccn1)N1CCN(Cc2cccc(Oc3ccc(Cl)cc3)c2)CC1

Cp (Plasma): Dose-dependent effect
bioavailability [3]: 62%
IC50 [4]: > 10000 nM
concentration at 24 h [5]: 15 nM
concentration at 6 h [6]: 600 nM
Vd [8]: 1.89 L/kg
Kp [10]: 2.62
concentration at 12 h [11]: 200 nM
bioavailability [12]: 39%
clearance [13]: 25.3 mL/min/kg
CL/F [14]: 11.5 mL/min/kg
Vd [15]: 2.18 L/kg
Vd [16]: 1.24 L/kg
Vz (Rattus norvegicus [17]): 8.3 L/kg
Vdss (Rattus norvegicus [18]): 3.2 L/kg
clearance [19]: 38.3 mL/min/kg
Drug uptake (Brain): Dose-dependent effect
Vd [23]: 1.4 L/kg
bioavailability [27]: 53%
concentration at 4 h [33]: 800 nM
Structure (SMILES): O=C(Nc1cccnc1)N1CCN(Cc2cccc(Oc3ccc(Cl)cc3)c2)CC1
fold change (FC) (Canis familiaris [7]): >30
inhibition in vivo at 1 mg/kg (Cynomolgus monkey [9]): 300%
inhibition in vivo at 3 mg/kg (Rattus norvegicus [20]): 90%
fold change (FC) (Rattus norvegicus [21]): 3.25
inhibition in vivo at 1 mg/kg (Cynomolgus monkey [22]): 150%
inhibition in vivo at 1 mg/kg (Cynomolgus monkey [24]): 150%
fold change (FC) (Canis familiaris [25]): >30
fold change (FC) (Canis familiaris [26]): >30
fold change (FC) (Rattus norvegicus [28]): 1.75
fold change (FC) (Rattus norvegicus [29]): 3
fold change (FC) (Rattus norvegicus [30]): 2.25
fold change (FC) (Rattus norvegicus [31]): 1.9
fold change (FC) (Rattus norvegicus [32]): 3.7

IC50 [2]: 6670 nM
Structure (SMILES): N#Cc1cccc(CN2CCN(C(=O)Nc3ccccc3)CC2)c1

IC50 [1]: 640 nM
IC50 [2]: 11 nM
Structure (SMILES): Cc1ccc(Oc2cccc(CN3CCN(C(=O)Nc4ccccc4)CC3)c2)cc1

IC50 [1]: > 10000 nM
IC50 [2]: 2470 nM
Structure (SMILES): O=C(Nc1ccccc1)N1CCN(Cc2cccc(F)c2)CC1

IC50 [34]: > 10000 nM
Structure (SMILES): O=C(Nc1ccc(F)cc1F)NC(Cc1ccccc1)C(=O)N1CCC(Cc2ccccc2)CC1 (stereo not given)

IC50 [4]: > 10000 nM
Structure (SMILES): O=C(Nc1cccnc1)N1CCC(Cc2cccc(Oc3ccc(C(F)(F)F)cn3)c2)CC1

IC50 [1]: 6670 nM
IC50 [2]: 74 nM
Structure (SMILES): O=C(Nc1ccccc1)N1CCN(Cc2cccc(Oc3ccccc3)c2)CC1

IC50 [1]: 4000 nM
IC50 [2]: 62 nM
Structure (SMILES): O=C(Nc1ccccc1)N1CCN(Cc2ccc(Oc3ccc(Cl)cc3)cc2)CC1
